Values of other authors in patent publication US11021493B2, “1,4-thiazine dioxide and 1,2,4-thiadiazine dioxide derivatives as beta-secretase inhibitors and methods of use” (AMGEN INC., priority 2016, dated 2021).

Conditions: higher compound dose given for three months; cited from earlier work

For `C[C@@]1(c2cc(-c3cncnc3)c(F)cc2F)CCSC(N)=N1` [LY 2811376], the eye toxicity is listed as “damaged the pigment epithelium of the rat's eye”.
